# Laboratory results taken from patent US8895733B2 (Novartis AG, priority 2010, dated 2014).
# Target: T1, Nav 1.7 (Homo sapiens, UniProt Q15858)
# T1 construct: expressed in transfected cells
# Assay: Whole-cell voltage clamp electrophysiology, automated patch clamp (marker c in Table of Examples)
# Type: cell-based
# Settings: marker c: Automated patch clamp data; read-out: Nav 1.7 activity
# Summary of the method: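 Human NaV1.7 currents were recorded by whole-cell automated patch clamp, on IonWorks Quattro or another automated platform, typically in perforated-patch configuration. The stimulus protocol was designed to probe block mainly of the inactivated state, with a typical sweep stepping from about −65 mV holding to −10 mV, then −100 mV.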
# T1 sequence (Q15858 whole entry): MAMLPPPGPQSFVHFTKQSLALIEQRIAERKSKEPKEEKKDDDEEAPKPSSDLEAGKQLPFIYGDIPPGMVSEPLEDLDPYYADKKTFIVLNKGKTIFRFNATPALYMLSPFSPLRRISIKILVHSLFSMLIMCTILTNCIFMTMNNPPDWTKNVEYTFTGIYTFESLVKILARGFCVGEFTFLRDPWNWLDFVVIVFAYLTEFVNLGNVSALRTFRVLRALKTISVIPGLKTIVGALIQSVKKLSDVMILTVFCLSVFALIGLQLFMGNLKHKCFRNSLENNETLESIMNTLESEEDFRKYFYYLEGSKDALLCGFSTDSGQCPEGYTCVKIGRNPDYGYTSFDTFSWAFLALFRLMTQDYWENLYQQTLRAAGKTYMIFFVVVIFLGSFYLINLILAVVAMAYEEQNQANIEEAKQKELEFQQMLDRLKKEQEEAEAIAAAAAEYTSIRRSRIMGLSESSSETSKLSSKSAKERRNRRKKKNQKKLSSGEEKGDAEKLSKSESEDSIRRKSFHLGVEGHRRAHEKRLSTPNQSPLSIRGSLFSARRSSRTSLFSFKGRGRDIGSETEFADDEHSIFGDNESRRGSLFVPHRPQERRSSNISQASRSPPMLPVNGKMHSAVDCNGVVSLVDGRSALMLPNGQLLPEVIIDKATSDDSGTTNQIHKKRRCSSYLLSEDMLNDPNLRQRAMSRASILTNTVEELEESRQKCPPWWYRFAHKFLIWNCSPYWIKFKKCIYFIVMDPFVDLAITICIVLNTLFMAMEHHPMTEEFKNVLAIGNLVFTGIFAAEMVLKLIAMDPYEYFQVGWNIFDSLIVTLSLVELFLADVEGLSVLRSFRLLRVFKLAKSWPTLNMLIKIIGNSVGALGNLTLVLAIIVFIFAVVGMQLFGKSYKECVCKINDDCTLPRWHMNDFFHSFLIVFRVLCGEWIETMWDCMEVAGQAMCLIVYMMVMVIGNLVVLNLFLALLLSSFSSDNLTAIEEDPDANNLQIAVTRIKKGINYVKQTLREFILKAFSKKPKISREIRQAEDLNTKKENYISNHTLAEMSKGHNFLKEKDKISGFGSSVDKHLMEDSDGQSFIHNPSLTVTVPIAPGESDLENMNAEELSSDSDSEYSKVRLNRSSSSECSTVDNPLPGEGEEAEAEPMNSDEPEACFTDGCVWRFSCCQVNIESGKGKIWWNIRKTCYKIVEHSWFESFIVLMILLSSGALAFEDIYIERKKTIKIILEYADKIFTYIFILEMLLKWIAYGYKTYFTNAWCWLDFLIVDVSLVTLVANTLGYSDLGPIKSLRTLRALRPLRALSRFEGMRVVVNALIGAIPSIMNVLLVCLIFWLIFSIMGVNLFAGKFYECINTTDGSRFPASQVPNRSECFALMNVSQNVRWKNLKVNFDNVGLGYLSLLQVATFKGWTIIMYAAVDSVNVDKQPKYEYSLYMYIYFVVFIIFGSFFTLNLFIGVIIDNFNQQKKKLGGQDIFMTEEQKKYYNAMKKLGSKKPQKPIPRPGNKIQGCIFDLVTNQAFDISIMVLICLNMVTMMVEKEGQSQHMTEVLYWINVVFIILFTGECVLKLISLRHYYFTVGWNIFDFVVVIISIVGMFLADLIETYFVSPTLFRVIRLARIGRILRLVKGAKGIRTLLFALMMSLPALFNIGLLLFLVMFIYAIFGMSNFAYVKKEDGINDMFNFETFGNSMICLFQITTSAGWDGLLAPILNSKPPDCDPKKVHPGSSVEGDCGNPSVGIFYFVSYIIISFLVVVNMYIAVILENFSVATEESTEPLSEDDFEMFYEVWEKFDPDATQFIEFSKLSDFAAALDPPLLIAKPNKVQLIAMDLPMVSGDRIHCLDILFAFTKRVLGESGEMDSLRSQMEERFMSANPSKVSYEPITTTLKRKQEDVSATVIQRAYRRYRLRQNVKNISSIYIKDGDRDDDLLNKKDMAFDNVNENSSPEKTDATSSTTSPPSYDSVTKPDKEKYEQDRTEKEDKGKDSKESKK
row,Structure (SMILES),IC50 [nM]
1,"CCOc1ccc(-c2nc(-c3nc(N)nc(N(C)c4ccccc4)n3)no2)cn1 [Example 148, 6-[5-(6-ethoxypyridin-3-yl)-1,2,4-oxadiazol-3-yl]-2-N-methyl-2-N-phenyl-1,3,5-triazine-2,4-diamine]",323
2,"CC(C)Oc1ccc(-c2nc(-c3nc(N)nc(N(C)c4ccccc4)n3)no2)cn1 [Example 149, 2-N-methyl-2-N-phenyl-6-{5-[6-(propan-2-yloxy)pyridin-3-yl]-1,2,4-oxadiazol-3-yl}-1,3,5-triazine-2,4-diamine]",142
3,"Nc1nc(-c2noc(-c3ccc(OCC(F)(F)F)nc3)n2)nc(N(CC(F)(F)F)c2ccccc2)n1 [Example 150, 2-N-phenyl-6-{5-[6-(2,2,2-trifluoroethoxy)pyridin-3-yl]-1,2,4-oxadiazol-3-yl}-2-N-(2,2,2-trifluoroethyl)-1,3,5-triazine-2,4-diamine]",222
4,"Cc1cccnc1-c1nc(-c2nc(N)nc(N(C)c3ccccc3)n2)no1 [Example 152, 2-N-methyl-6-[5-(3-methylpyridin-2-yl)-1,2,4-oxadiazol-3-yl]-2-N-phenyl-1,3,5-triazine-2,4-diamine]",1620
5,"CN(c1ccccc1)c1nc(N)nc(-c2noc(-c3ccc(F)cn3)n2)n1 [Example 153, 6-[5-(5-fluoropyridin-2-yl)-1,2,4-oxadiazol-3-yl]-2-N-methyl-2-N-phenyl-1,3,5-triazine-2,4-diamine]",1390
6,"CN(c1ccccc1)c1nc(N)nc(-c2noc(-c3cccc(OCC(F)(F)F)n3)n2)n1 [Example 155, 2-N-methyl-2-N-phenyl-6-{5-[6-(2,2,2-trifluoroethoxy)pyridin-2-yl]-1,2,4-oxadiazol-3-yl}-1,3,5-triazine-2,4-diamine]",4570
7,"CN(c1ccccc1)c1nc(N)nc(-c2noc(C3CCN(C(=O)C(F)(F)F)CC3)n2)n1 [Example 159, 1-[4-(3-{4-Amino-6-[methyl(phenyl)amino]-1,3,5-triazin-2-yl}-1,2,4-oxadiazol-5-yl)piperidin-1-yl]-2,2,2-trifluoroethan-1-one]",8670
8,"CN(c1ccccc1)c1nc(N)nc(-c2noc(C3CCN(S(C)(=O)=O)CC3)n2)n1 [Example 160, 6-[5-(1-methanesulfonylpiperidin-4-yl)-1,2,4-oxadiazol-3-yl]-2-N-methyl-2-N-phenyl-1,3,5-triazine-2,4-diamine]",2730
9,"CC(=O)N1CCC(c2nc(-c3nc(N)nc(N(C)c4ccccc4)n3)no2)CC1 [Example 162, 1-[4-(3-{4-amino-6-[methyl(phenyl)amino]-1,3,5-triazin-2-yl}-1,2,4-oxadiazol-5-yl)piperidin-1-yl]ethan-1-one]",8980
10,"CN(c1ccccc1)c1nc(N)nc(-c2noc(C3CCN(CCC(F)(F)F)CC3)n2)n1 [Example 163, 2-N-methyl-2-N-phenyl-6-{5-[1-(3,3,3-trifluoropropyl)piperidin-4-yl]-1,2,4-oxadiazol-3-yl}-1,3,5-triazine-2,4-diamine]",559
11,"CCCS(=O)(=O)N1CCC(c2nc(-c3nc(N)nc(N(C)c4ccccc4)n3)no2)CC1 [Example 168, 2-N-methyl-2-N-phenyl-6-{5-[1 - (propane-1-sulfonyl)piperidin-4-yl]-1,2,4-oxadiazol-3-yl}-1,3,5-triazine-2,4-diamine]",1470
12,"CN(c1ccccc1)c1nc(N)nc(-c2noc(C3CCN(S(=O)(=O)CC(F)(F)F)CC3)n2)n1 [Example 169, 2-N-methyl-2-N-phenyl-6-(5-{1-[(2,2,2-trifluoroethane)sulfonyl]piperidin-4-yl}-1,2,4-oxadiazol-3-yl)-1,3,5-triazine-2,4-diamine]",1030
13,"CN(c1ccccc1)c1nc(N)nc(-c2noc(C3CCN(S(=O)(=O)c4ccccc4)CC3)n2)n1 [Example 172, 6-{5-[1-(benzenesulfonyl)piperidin-4-yl]-1,2,4-oxadiazol-3-yl}-2-N-methyl-2-N-phenyl-1,3,5-triazine-2,4-diamine]",1080
14,"CN(c1ccccc1)c1nc(N)nc(-c2noc(C3CCN(Cc4ccccc4)CC3)n2)n1 [Example 173, 6-[5-(1-Benzylpiperidin-4-yl)-1,2,4-oxadiazol-3-yl]-2-N-methyl-2-N-phenyl-1,3,5-triazine-2,4-diamine]",1000
15,"Nc1nc(Nc2ccccc2)nc(-c2noc(N3CCC(COCC(F)(F)F)CC3)n2)n1 [Example 174, 2-N-Phenyl-6-(5-{4-[(2,2,2-trifluoroethoxy)methyl]piperidin-1-yl}-1,2,4-oxadiazol-3-yl)-1,3,5-triazine-2,4-diamine]",340
16,"CN(c1ccccc1)c1nc(N)nc(-c2noc(N3CCC(CSc4ccccc4)CC3)n2)n1 [Example 176, 2-N-methyl-2-N-phenyl-6-(5-{4-[(phenylsulfanyl)methyl]piperidin-1-yl}-1,2,4-oxadiazol-3-yl)-1,3,5-triazine-2,4-diamine]",223
17,"CC(C)SCC1CCN(c2nc(-c3nc(N)nc(N(C)c4ccccc4)n3)no2)CC1 [Example 177, 2-N-methyl-2-N-phenyl-6-(5-{4-[(propan-2-ylsulfanyl)methyl]piperidin-1-yl}-1,2,4-oxadiazol-3-yl)-1,3,5-triazine-2,4-diamine]",306
18,"CN(c1ccccc1)c1nc(N)nc(-c2noc(N3CCC(CS(=O)(=O)CC(F)(F)F)CC3)n2)n1 [Example 178, 2-N-Methyl-2-N-phenyl-6-[5-(4-{[(2,2,2-trifluoroethane)sulfonyl]methyl}piperidin-1-yl)-1,2,4-oxadiazol-3-yl]-1,3,5-triazine-2,4-diamine]",2650
19,"CN(c1ccccc1)c1nc(N)nc(-c2noc(N3CCC(CS(=O)(=O)c4ccccc4)CC3)n2)n1 [Example 179, 6-(5-{4-[(benzenesulfonyl)methyl]piperidin-1-yl}-1,2,4-oxadiazol-3-yl)-2-N-methyl-2-N-phenyl-1,3,5-triazine-2,4-diamine]",810
20,"CC(C)[S+]([O-])CC1CCN(c2nc(-c3nc(N)nc(N(C)c4ccccc4)n3)no2)CC1 (centres unmarked) [Example 180, 2-N-methyl-2-N-phenyl-6-(5-{4-[(propane-2-sulfinyl)methyl]piperidin-1-yl}-1,2,4-oxadiazol-3-yl)-1,3,5-triazine-2,4-diamine]",> 7710
21,"CC(C)S(=O)(=O)CC1CCN(c2nc(-c3nc(N)nc(N(C)c4ccccc4)n3)no2)CC1 [Example 181, 2-N-methyl-2-N-phenyl-6-(5-{4-[(propane-2-sulfonyl)methyl]piperidin-1-yl}-1,2,4-oxadiazol-3-yl)-1,3,5-triazine-2,4-diamine]",9080

# The remaining compounds from weak to strong by IC50, led by results:
row,IC50 [nM],Structure (SMILES)
1,9040,"CN(c1ccccc1)c1nc(N)nc(-c2noc(C3CCN(C(=O)CC(F)(F)F)CC3)n2)n1 [Example 164, 1-[4-(3-{4-amino-6-[methyl(phenyl)amino]-1,3,5-triazin-2-yl}-1,2,4-oxadiazol-5-yl)piperidin-1-yl]-3,3,3-trifluoropropan-1-one]"
2,8500,"CC(C)C(=O)N1CCC(c2nc(-c3nc(N)nc(N(C)c4ccccc4)n3)no2)CC1 [Example 161, 1-[4-(3-{4-Amino-6-[methyl(phenyl)amino]-1,3,5-triazin-2-yl}-1,2,4-oxadiazol-5-yl)piperidin-1-yl]-2-methylpropan-1-one]"
3,7690,"COCC1CCN(c2nc(-c3nc(N)nc(N(C)c4ccccc4)n3)no2)CC1 [Example 165, 6-{5-[4-(methoxymethyl)piperidin-1-yl]-1,2,4-oxadiazol-3-yl}-2-N-methyl-2-N-phenyl-1,3,5-triazine-2,4-diamine]"
4,5060,"Cc1cc(C)c(-c2nc(-c3nc(N)nc(N(C)c4ccccc4)n3)no2)cn1 [Example 154, 6-[5-(4,6-dimethylpyridin-3-yl)-1,2,4-oxadiazol-3-yl]-2-N-methyl-2-N-phenyl-1,3,5-triazine-2,4-diamine]"
5,3310,"CN(c1ccccc1)c1nc(N)nc(-c2noc(-c3ccc(F)nc3)n2)n1 [Example 158, 6-[5-(6-fluoropyridin-3-yl)-1,2,4-oxadiazol-3-yl]-2-N-methyl-2-N-phenyl-1,3,5-triazine-2,4-diamine]"
6,1880,"CCS(=O)(=O)N1CCC(c2nc(-c3nc(N)nc(N(C)c4ccccc4)n3)no2)CC1 [Example 170, 6-{5-[1-(ethanesulfonyl)piperidin-4-yl]-1,2,4-oxadiazol-3-yl}-2-N-methyl-2-N-phenyl-1,3,5-triazine-2,4-diamine]"
7,1480,"FC(F)(F)CNc1nc(Nc2ccccc2)nc(-c2noc(-c3ccc(OCC(F)(F)F)nc3)n2)n1 [Example 151, 2-N-phenyl-6-{5-[6-(2,2,2-trifluoroethoxy)pyridin-3-yl]-1,2,4-oxadiazol-3-yl}-4-N-(2,2,2-trifluoroethyl)-1,3,5-triazine-2,4-diamine]"
8,477,"COCCNc1nc(Nc2ccccc2)nc(-c2noc(-c3ccc(OCC(F)(F)F)nc3)n2)n1 [Example 157, 2-N-(2-methoxyethyl)-4-N-phenyl-6-{5-[6-(2,2,2-trifluoroethoxy)pyridin-3-yl]-1,2,4-oxadiazol-3-yl}-1,3,5-triazine-2,4-diamine]"
9,254,"CC(C)S(=O)(=O)N1CCC(c2nc(-c3nc(N)nc(N(C)c4ccccc4)n3)no2)CC1 [Example 171, 2-N-methyl-2-N-phenyl-6-{5-[1-(propane-2-sulfonyl)piperidin-4-yl]-1,2,4-oxadiazol-3-yl}-1,3,5-triazine-2,4-diamine]"
10,60,"CN(c1ccccc1)c1nc(N)nc(-c2noc(N3CCC(COc4ccccc4)CC3)n2)n1 [Example 166, 2-N-methyl-6-{5-[4-(phenoxymethyl)piperidin-1-yl]-1,2,4-oxadiazol-3-yl}-2-N-phenyl-1,3,5-triazine-2,4-diamine]"
11,20,"CN(c1ccccc1)c1nc(N)nc(-c2noc(N3CCC(CSCC(F)(F)F)CC3)n2)n1 [Example 175, 2-N-methyl-2-N-phenyl-6-[5-(4-{[(2,2,2-trifluoroethyl)sulfanyl]methyl}piperidin-1-yl)-1,2,4-oxadiazol-3-yl]-1,3,5-triazine-2,4-diamine]"
